Data on three compounds can be found in ChEMBL document CHEMBL1759996, “Design and synthesis of pyridin-2-yloxymethylpiperidin-1-ylbutyl amide CCR5 antagonists that are potent inhibitors of M-tropic (R5) HIV-1 replication” (Bioorg Med Chem Lett, 2011).

SMILES strings stand for the structures. pIC50: −log10 of the molar value. Some results are limits rather than exact numbers.

For data set [1], the target named is C-C chemokine receptor type 5 (Homo sapiens, UniProt P51681). The experiment in a line: Displacement of […] from CCR5 expressed in HEK293F cells. It counts as cell-based.
C-C chemokine receptor type 5, sequence (P51681 whole entry): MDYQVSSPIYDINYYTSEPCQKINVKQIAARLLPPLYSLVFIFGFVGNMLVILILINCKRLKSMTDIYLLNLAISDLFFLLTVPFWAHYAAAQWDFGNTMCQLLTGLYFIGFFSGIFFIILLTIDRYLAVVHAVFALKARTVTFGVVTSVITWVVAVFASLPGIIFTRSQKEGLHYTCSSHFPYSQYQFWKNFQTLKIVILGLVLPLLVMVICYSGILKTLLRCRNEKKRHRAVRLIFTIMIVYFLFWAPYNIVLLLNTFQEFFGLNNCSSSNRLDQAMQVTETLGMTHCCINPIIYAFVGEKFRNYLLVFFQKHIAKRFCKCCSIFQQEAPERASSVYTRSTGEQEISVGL
Data set [2] relates to Human immunodeficiency virus 1. Put plainly: Antiviral activity against Human immunodeficiency virus 1 BAL infected in human PBMC assessed as inhibition of viral replication by p24 antigen specific ELISA. It counts as functional, organism-based. For orientation: An ELISA detects its analyte on a solid surface through an enzyme-linked reagent.
The nature of data set [3]: Cytotoxicity against human PBMC. It counts as cell-based.
A short description of data set [4]: Cmax in rat. It counts as ADME, organism-based. The conditions noted are these: in vivo.
Data set [5] is described as follows: Cmax in dog. It counts as ADME, organism-based, Canis lupus familiaris. The conditions noted are these: in vivo.
Data set [6] can be described thus: AUC (0 to infinity) in rat. It counts as ADME, organism-based. Also on record: time infinity. As to conditions: plasma.
The nature of data set [7]: AUC (0 to infinity) in dog. It counts as ADME, organism-based, Canis lupus familiaris. The conditions noted are these: plasma. Also on record: time infinity.
Data set [8] is described as follows: Clearance in rat at 10 umol/kg, iv. It counts as ADME, organism-based. As to conditions: in vivo.
Data set [9] can be described thus: Clearance in dog at 5 umol/kg, iv. The conditions noted are these: in vivo. It counts as ADME, organism-based, Canis lupus familiaris.
Data set [10] in a line: Volume of distribution at steady state in rat at 10 umol/kg, iv. It counts as ADME, organism-based. The conditions noted are these: in vivo, read-out: Vdss.
A short description of data set [11]: Volume of distribution at steady state in dog at 5 umol/kg, iv. As to conditions: in vivo, read-out: Vdss. It counts as ADME, organism-based, Canis lupus familiaris.
Data set [12] can be described thus: Half life in rat at 10 umol/kg, iv. It counts as ADME, organism-based. As to conditions: in vivo.
The nature of data set [13]: Half life in dog at 5 umol/kg, iv. It counts as ADME, organism-based, Canis lupus familiaris. As to conditions: in vivo.
Data set [14] is described as follows: Oral bioavailability in rat at 100 umol/kg. It counts as ADME, organism-based. The conditions noted are these: in vivo.
A short description of data set [15]: Oral bioavailability in dog at 12.5 umol/kg. It counts as ADME, organism-based, Canis lupus familiaris. The conditions noted are these: in vivo.

Take `CC(CCNC(=O)c1c(Cl)cncc1Cl)N1CCC(C(Oc2cccc(Cl)n2)c2ccc(C(F)(F)F)cc2)CC1` (mixture of isomers): the values for the negative logarithm of the IC50 (pIC50) in data set [1] and in [2] were 7.70 and 8.05, respectively. This compound also returned a CC50 in data set [3] of more than 32500 nM. In addition, the Cmax was 200 nM in [4] and 100 nM in [5]. The AUC(0-inf) in [6] was determined as 2.4 µM·h; in [7] it was 0.5 µM·h. For the same compound, the clearance in data set [8] is 142 mL/min/kg; in [9], 31.7 mL/min/kg. Also, the Vd is 15.2 L/kg in data set [10] and 20.8 L/kg in data set [11]. Also, the half-life in data set [12] was 1.2 h; in data set [13], 7.7 h. Also, the bioavailability in data set [14] came out at 20%; in data set [15], 6%.

On to `CCO/N=C(/c1ccc(Br)cc1)C1CCN(C2(C)CCN(C(=O)c3c(C)cc[n+]([O-])c3C)CC2)CC1` [SCHERING C], for which the negative logarithm of the IC50 (pIC50) in [1] is 7.40; in [2], 6.80. This compound also registered a half-maximal cytotoxic concentration (CC50) in [3] of more than 1600 nM. The compound also displayed a Cmax in [4] of 1600 nM. The compound also showed an AUC(0-inf) in data set [6] of 4.3 µM·h. In addition, the clearance in [8] is 31.7 mL/min/kg. The Vd in data set [10] came out at 7.2 L/kg. Further, the half-life in [12] was 2.7 h. Also, in data set [14], the bioavailability stood at 48%.

Consider `CC(CCNC(=O)c1c(Cl)cncc1Cl)N1CCC(C(Oc2ccccc2C#N)c2ccc(C(F)(F)F)cc2)CC1` (mixture of isomers), for which the pIC50 in data set [1] is 7.00; in data set [2], 5.54. In [3], the CC50 was 17000 nM.

As a reminder, the pIC50 is the IC50 on a negative log10 scale, so that one unit is a factor of ten. One may read the CC50 as the concentration giving 50% cytotoxicity. High values mean lower toxicity to the cells, low ones greater toxicity to the cells. Broadly, the Cmax is the maximum level reached in the sampled fluid or tissue. What is called AUC(0-inf) is the area under the concentration-time curve extrapolated to infinity. Read a low AUC(0-inf) as low exposure. As a reminder, the clearance is a measure of how efficiently the substance is removed, as volume per time. In general, half-life refers to the time in which the quantity being followed falls by half. The term bioavailability denotes dose-corrected exposure relative to a reference, in per cent. High values mean good availability, low ones poor availability.
